The results in this text go back to patent US20190343801A1, “COMPOSITIONS AND METHODS FOR CONTROLLING NATURAL KILLER CELL ACTIVATION AND FUNCTION” (BAR ILAN UNIVERSITY, priority 2017, published 2019).

Structures can show the parent of a compound that is named as a salt.

The experiment relates to SHP-1 conformation. In words: YFP-SHP1-CFP FRET sensor analysis of SHP-1 conformation in YTS cells. The experiment is classed as cell-based. The following applies: inhibitory NKIS (221-Cw4), untreated 11.5±2.5%; 1 μM JAS, 25 μM Y-27. The protocol: Active “open” conformation of SHP-1 results in a large distance between the two fluorescent proteins with no FRET signal. The inactivated, “closed”, conformation of SHP-1 brings the N′- and C′-termini into proximity resulting in high FRET efficiency.
YTS-2DL1 cells transiently expressing YFP-SHP1-CFP were treated with 25 μM Y-27 or left untreated. Cells were incubated on slides with 221-Cw4 or Cw7 target cells expressing mCherry, following 5 min of conjugation at 37° C., cells were treated with 1 μM JAS, and incubated for 5 min before fixation. FRET analysis was performed (see Experimental procedures). […]
FRET was measured by the donor-sensitized acceptor fluorescence technique. Briefly, three sets of filters were used: one optimized for donor fluorescence (excitation, 458 nm, and emission, 465 to 510 nm), a second for acceptor fluorescence (excitation, 514 nm, and emission, 530 to 600 nm), and a third for FRET (excitation, 458 nm; emission, 530 to 600 nm).
FRET correction was performed as previously described. In brief, the non-FRET components were calculated and removed using calibration curves derived from images of single-labeled CFP- or YFP-expressing cells. […] A calibration curve was derived that defined the amount of CFP fluorescence seen in the FRET image as a function of the fluorescence in the CFP image. […]

Compound `C[C@@H](N)C1CCC(C(=O)Nc2ccncc2)CC1` (stereo partly drawn) [Formula Y-27, 4-[(1R)-1-aminoethyl]-N N-4-pyridinyl-trans-cyclohexanecarboxamide, dihydrochloride] registered an FRET efficiency of 23.2±1.3%.
